Experimental data from PMC3912015, “Synthetic Multivalent Antifungal Peptides Effective against Fungi” (PLoS ONE, 2014).
In brackets after ≈: the same amount, converted by molar mass. Like-named read-outs stand apart in the source and are kept apart here. Bridge positions count the residues as written; N and C are the ends. Peptide text beside a SMILES is read from it. I, II: the chains in the order shown.

Experiments:
[1] = type: biochemical
Method: Small unilamellar vesicles (SUVs) were prepared using PC/PE/PI or PS lipids (5∶2.5∶2.5) containing 15 wt% ergosterol or PC/Cholesterol (10∶1). For the preparation of PC/PE/PI or PS/Erg SUV, the lipids were dissolved in chloroform/methanol (2∶1, v/v) in a glass tube. Ergosterol was dissolved in same solvent and added to lipid mixture to make final ergosterol content of 15 wt%. The Lipid-ergosterol mixture was dried using nitrogen gas to form lipid layer. The film was hydrated in a buffer containing 20 mM PBS (pH 7), vortexed and sonicated. Each cycle of sonication (5 sec, 40°C) was followed by freezing in liquid nitrogen and thawing on a water bath kept at 37°C. The procedure was repeated 5–6 times until an optically clear dispersion appeared. The SUV was divided into two parts. To the first part 50 mM calcein was added and incubated for 1 h. The excess calcein was removed by injecting 100 µL of the calcien-loaded SUV’s into a Ultrahydrogel™ 250 (7.8 mm × 300 mm) column equilibrated with 20 mM PBS (pH 7.0) and eluted isochratically at a flow rate of 1 mL/min for 1.5 column volumes. The calcein-loaded liposomes were mixed with calcein-free liposome (1∶1) to adjust final liposome concentration. Peptide concentration was added to obtain 1∶30 or 1∶15 peptide:liposome ratio. Changes in the fluorescence signal after addition of peptide or Triton X-100 was measured on a PTI spectrofluorometer, using an excitation wavelength of 480 nm and emission wavelength of 512 nm. The Percentage calcein released at each time point was calculated using the equation, [drawing 1]
Where A0 is the observed fluorescence intensity upon addition of peptides, Amin is the average intensity at the baseline (before peptide addition), Amax is the average intensity at the saturation phase after adding 1% Triton X-100. Similar protocol was followed for the preparation of PC/Cholesterol SUVs.

Haemolytic assay = type: cell-based; conditions: rabbit red blood cells, 440 µM, 4% rabbit erythrocytes, read-out: haemolysis
Method: Haemolytic activity of peptides and antifungal drugs were determined against rabbit red blood cells. Briefly, serial dilution of peptides/antifungals in PBS was mixed with rRBC (final concentration 4% v/v), incubated at 37°C for 1 h and centrifuged at 3000 rpm for 10 minutes. The release of hemoglobin in the supernatant was monitored by measuring the hemoglobin absorbance at 576 nm. The readings from cell suspension in PBS (without any additives) or 1% Triton-X100 were used as 0% or 100% haemolysis.

F. solani DF1500 = assay: microbe, parasite or virus in culture; type: cell-based; conditions: 48 h
[2] = Intact peptide after trypsin incubation (mass spectrometry); type: in vitro ADME; conditions: 6 h incubation with trypsin
Method: For all the experiments, unless otherwise stated, C. albicans ATCC 10231 strain was used. B4010 (1 mg/mL) was incubated with trypsin (enzyme:peptide ratio 1∶100) at 37°C. 20 µL aliquot of this mixture was withdrawn at various time intervals (0.5, 1, 2, 4 and 6 h) and mixed with 1 µL of trypsin inhibitor. The antifungal activity of the peptide was determined by adding this mixture to 180 µL of inoculum and monitoring the growth at OD600 for 24 h. Similar experiments performed in the presence of trypsin/trypsin inhibitor (without B4010) were used as a positive control. For assessing the antifungal activity in TF, the peptide was dissolved in freshly collected rabbit TF and incubated at 37°C for 6 h. After incubation, an equal volume of an overnight culture of C. albicans (∼10^6 CFU/mL) was mixed with peptides in tear fluid and incubated at 37°C for 24 h. The final concentrations of the peptide were at 4.4, 8.8 and 22 µM. A 100 µL aliquot of serial dilutions (10^2 or 10^3 times) of this mixture were inoculated on a SD agar plate and then incubated for 48 h at 37°C. Culture alone and culture with 50% tear fluid served as the positive control. The data was expressed in % killing with respect to culture without tear fluid.
Supplementary file pone.0087730.s002.tif: Figure S2 Positive charge electrospray ionization mass spectrometry of B4010 after incubation with trypsin (enzyme:B4010 = 1∶100). […]

C. albicans DF2672R = assay: microbe, parasite or virus in culture; type: cell-based; conditions: DF2672R, 48 h; read-out: MIC in µM against Ca 2672R
Method in brief: (§1)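 MIC = lowest peptide level with complete growth inhibition (visual + OD600). Conditions: 1/6 SD broth, inoculum OD600 ∼0.08, peptide 0.4–22 µM final, 37°C, 24/48 h, OD600 every 30 min, 100 rpm shaking. Triplicates.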

C. albicans DF1976R = assay: microbe, parasite or virus in culture; type: cell-based; conditions: DF1976R, 48 h; read-out: MIC in µM against Ca DF1976R
Method in brief: as §1

C. albicans ATCC10231 = assay: microbe, parasite or virus in culture; type: cell-based; conditions: ATCC10231, 48 h; read-out: MIC in µM against Ca 10231
Method in brief: as §1

C. albicans ATCC24433 = assay: microbe, parasite or virus in culture; type: cell-based; conditions: ATCC24433, 48 h
Method in brief: as §1

C. albicans ATCC2091 = assay: microbe, parasite or virus in culture; type: cell-based; conditions: ATCC2091, 48 h
Method in brief: as §1

CC(C)[C@H](NC(=O)[C@H](CCCCN)NC(=O)[C@H](CCCNC(=N)N)NC(=O)CNC(=O)[C@@H](N)CCCNC(=N)N)C(=O)N[C@H](C(=O)N[C@@H](CCCNC(=N)N)C(=O)N[C@@H](CCCNC(=N)N)C(=O)NCCCC[C@H](NC(=O)[C@H](CCCNC(=N)N)NC(=O)[C@H](CCCNC(=N)N)NC(=O)[C@@H](NC(=O)[C@@H](NC(=O)[C@H](CCCCN)NC(=O)[C@H](CCCNC(=N)N)NC(=O)CNC(=O)[C@@H](N)CCCNC(=N)N)C(C)C)C(C)C)C(=O)NCCCC[C@H](NC(=O)[C@H](CCCCNC(=O)[C@H](CCCNC(=N)N)NC(=O)[C@H](CCCNC(=N)N)NC(=O)[C@@H](NC(=O)[C@@H](NC(=O)[C@H](CCCCN)NC(=O)[C@H](CCCNC(=N)N)NC(=O)CNC(=O)[C@@H](N)CCCNC(=N)N)C(C)C)C(C)C)NC(=O)[C@H](CCCNC(=N)N)NC(=O)[C@H](CCCNC(=N)N)NC(=O)[C@@H](NC(=O)[C@@H](NC(=O)[C@H](CCCCN)NC(=O)[C@H](CCCNC(=N)N)NC(=O)CNC(=O)[C@@H](N)CCCNC(=N)N)C(C)C)C(C)C)C(=O)N[C@@H](CCCCN)C(=O)O)C(C)C [B4010] (I: H-RGRKVVRRKKK-OH / II: H-RGRKVVRRK / III: H-RGRKVVRR / IV: H-RGRKVVRR; amide I:9-IV:C, I:10-II:C, II:9-III:C; N-terminus and C-terminus assumed)
% Calcein released from PC/PE/PS/Erg [1]: ~68%
dye (calcein) release [1]: ~46%
hemolysis at 1 h, 440 µM (Haemolytic assay): < 1%
MIC (F. solani DF1500): 1.4 µM (≈ 6.39 µg/mL)
remaining at 6 h, 1 mg/mL [2]: ~20%
MIC (C. albicans DF2672R): 0.37 µM (≈ 1.69 µg/mL)
MIC (C. albicans DF1976R): 0.37 µM (≈ 1.69 µg/mL)
MIC (C. albicans ATCC10231): 1.4 µM (≈ 6.39 µg/mL)
MIC (C. albicans ATCC24433; read-out: MIC): 1.4 µM (≈ 6.39 µg/mL)
MIC (C. albicans ATCC24433; read-out: MIC in µM against Ca 24433): 1.4 µM (≈ 6.39 µg/mL)
MIC (C. albicans ATCC2091; read-out: MIC): 0.7 µM (≈ 3.19 µg/mL)
MIC (C. albicans ATCC2091; read-out: MIC in µM against Ca 2091): 0.7 µM (≈ 3.19 µg/mL)
